Test results reported in patent US10300065B2, “Method of treating or prevention of atherothrombotic events in patients with history of myocardial infarction” (ASTRAZENECA AB, priority 2015, dated 2019).

Test system: patients with a history of myocardial infarction
Assay: PEGASUS-TIMI 54 trial, efficacy endpoints (intention-to-treat / full analysis set)
Assay type: in vivo, human
From the text: The PEGASUS-TIMI 54 trial (also referred to as the PEGASUS trial or PEGASUS study herein) was a randomized, double-blind, placebo-controlled multinational clinical trial that enrolled over 21,000 patients at 1,161 sites in 31 countries. The protocol was approved by the relevant ethics committees at all participating sites. In the U.S., the PEGASUS trial was assigned a ClinicalTrials.gov number of NCT01225562.
Patients could be randomized regardless of their prior adenosine diphosphate (ADP) receptor blocker therapy or a lapse in therapy.
Randomization was performed using a central computerized telephone or web based system, and allocation was double-blind.
All patients enrolled in the PEGASUS trial were instructed to take open label aspirin at a dose of 75 to 150 mg daily.
A total of 1360 primary endpoint events would be required to provide approximately 90% power to detect a 20% relative risk reduction with the 90 mg twice daily dose and approximately 83% power to detect a 19% relative risk reduction with the 60 mg twice daily dose when each dose was compared individually with placebo. The primary efficacy analysis was conducted on an intention-to-treat basis, with each of the two doses individually compared to placebo, as a time to event analysis from randomization to the first occurrence of any element of the primary composite endpoint: cardiovascular death, myocardial infarction, or stroke. […] An exploratory analysis of both doses combined compared with placebo was prespecified.

[1] = 90 mg bd, 5651 patients with a coronary stent
[2] = 90 mg bid (N = 7050), at 3 years
[3] = 90 mg bid vs. placebo (N = 6988)

For `CCCSc1nc(N[C@@H]2C[C@H]2c2ccc(F)c(F)c2)c2nnn([C@@H]3C[C@H](OCCO)[C@@H](O)[C@H]3O)c2n1` [Ticagrelor, (1S,2S,3R,5S)-3-[7-{[(1R,2S)-2-(3,4-difluorophenyl)cyclopropyl]amino}-5-(propylthio)-3H-[1,2,3]-triazolo[4,5-d]pyrimidin-3-yl]-5-(2-hydroxyethoxy)cyclopentane-1,2-diol], the “Composite of CV Death/MI/Stroke, landmark: Patients with events” value (90 mg bd, 1-360 days) was 198, the “Composite of CV Death/MI/Stroke, landmark: Patients with events (%)” value (90 mg bd, 1-360 days) was “(2.8%)” and the “Stent thrombosis: Patients (%) with events” value [1] was “(0.6%)”. The “Stent thrombosis: Patients with events” value [1] was 32, the “Composite of CV Death/MI/Stroke, landmark: Patients with events” value (90 mg bd, 361 days or more) was 295 and the “Composite of CV Death/MI/Stroke, landmark: Patients with events (%)” value (90 mg bd, 361 days or more) was “(4.4%)”. The “Stent thrombosis: KM %” value (90 mg bd, at 36 months) was 0.6%, the “Composite of CV Death/MI/Stroke, landmark: KM % at 24 months” value (90 mg bd, cumulative from day 361 to day 720) was 2.4% and the “Composite of CV Death/MI/Stroke, landmark: KM % at 36 months” value (90 mg bd, cumulative from day 361 to day 1080) was 5.2%. The “MI: ARR (%)” value (90 mg bid) was 0.85%, the “MI: NNT” value (90 mg bid) was 118 and the “Stroke: ARR (%)” value (90 mg bid) was 0.33%. For the same compound, the “Stroke: NNT” value (90 mg bid) was 303, the “All Stroke: 3-year Kaplan-Meier estimate” value (90 mg bid (N = 7050)) was “(1.61) %” and the “All Stroke: n” value (90 mg bid (N = 7050)) was 100. The “Cardiovascular Death or Myocardial infarction: 3-year Kaplan-Meier estimate” value (90 mg bid (N = 7050)) was “(6.79) %”, the “Cardiovascular Death or Myocardial infarction: n” value (90 mg bid (N = 7050)) was 424 and the “Cardiovascular Death, Myocardial infarction, or Stroke: 3-year Kaplan-Meier estimate” value (90 mg bid (N = 7050)) was “(7.85) %”. The “Cardiovascular Death, Myocardial infarction, or Stroke: n” value (90 mg bid (N = 7050)) was 493, the “Cardiovascular Death: 3-year Kaplan-Meier estimate” value (90 mg bid (N = 7050)) was “(2.94) %” and the “Cardiovascular Death: n” value (90 mg bid (N = 7050)) was 182. For the same compound, the “Coronary Heart Disease Death or Myocardial infarction: 3-year Kaplan-Meier estimate” value (90 mg bid (N = 7050)) was “(5.59) %”, the “Coronary Heart Disease Death or Myocardial infarction: n” value (90 mg bid (N = 7050)) was 350 and the “Coronary Heart Disease Death, Myocardial infarction, or Stroke: 3-year Kaplan-Meier estimate” value (90 mg bid (N = 7050)) was “(6.99) %”. For the same compound, the “Coronary Heart Disease Death, Myocardial infarction, or Stroke: n” value (90 mg bid (N = 7050)) was 438, the “Coronary Heart Disease Death: 3-year Kaplan-Meier estimate” value (90 mg bid (N = 7050)) was “(1.53) %” and the “Coronary Heart Disease Death: n” value (90 mg bid (N = 7050)) was 97. For the same compound, the “Death from any cause: 3-year Kaplan-Meier estimate” value (90 mg bid (N = 7050)) was “(5.15) %”, the “Death from any cause: n” value (90 mg bid (N = 7050)) was 326 and the “Hospitalization for Unstable Angina: n” value (90 mg bid (N = 7050)) was 33. For the same compound, the “Ischemic Stroke: 3-year Kaplan-Meier estimate” value (90 mg bid (N = 7050)) was “(1.41) %”, the “Ischemic Stroke: n” value (90 mg bid (N = 7050)) was 88 and the “Myocardial infarction: 3-year Kaplan-Meier estimate” value (90 mg bid (N = 7050)) was “(4.40) %”. The “Myocardial infarction: n” value (90 mg bid (N = 7050)) was 275, the “Transient Ischemic Attack: n” value (90 mg bid (N = 7050)) was 17 and the “Urgent Coronary Revascularization for Unstable Angina: n” value (90 mg bid (N = 7050)) was 74. The “Hospitalization for Unstable Angina: (%)” value [2] was “(0.50) %”, the “Transient Ischemic Attack: (%)” value [2] was “(0.27) %” and the “Urgent Coronary Revascularization for Unstable Angina: (%)” value [2] was “(1.16) %”. For the same compound, the “Cardiovascular Death, Myocardial infarction, or Stroke: 3-year Kaplan-Meier estimate” value (90 mg bid (N = 7050), listed as ticagrelor) was 7.85%, the “All Stroke: HR” value (90 mg bid vs Placebo) was 0.82 and the “Cardiovascular Death or Myocardial infarction: HR” value (90 mg bid vs Placebo) was 0.85. The “Cardiovascular Death, Myocardial infarction, or Stroke: HR” value (90 mg bid vs Placebo) was 0.85, the “Cardiovascular Death: HR” value (90 mg bid vs Placebo) was 0.87 and the “Coronary Heart Disease Death or Myocardial infarction: HR” value (90 mg bid vs Placebo) was 0.81. For the same compound, the “Coronary Heart Disease Death, Myocardial infarction, or Stroke: HR” value (90 mg bid vs Placebo) was 0.82, the “Coronary Heart Disease Death: HR” value (90 mg bid vs Placebo) was 0.73 and the “Coronary stent thrombosis: RRR” value (90 mg bid vs Placebo) was 36%. The “Death from any cause: HR” value (90 mg bid vs Placebo) was 1.00, the “Hospitalization for Unstable Angina: HR” value (90 mg bid vs Placebo) was 0.89 and the “Ischemic Stroke: HR” value (90 mg bid vs Placebo) was 0.85. For the same compound, the “Myocardial infarction: HR” value (90 mg bid vs Placebo) was 0.81, the “Transient Ischemic Attack: HR” value (90 mg bid vs Placebo) was 1.00 and the “Urgent Coronary Revascularization for Unstable Angina: HR” value (90 mg bid vs Placebo) was 0.97. The “coronary heart disease death, myocardial infarction, or stroke: RRR” value (90 mg bid vs Placebo) was 18%, the “Irreversible harm (CV death, MI, stroke, ICH, or fatal bleeding): HR” value [3] was 0.88 and the “Irreversible harm (CV death, MI, stroke, ICH, or fatal bleeding): RRR (%)” value [3] was 12%. The “Net clinical benefit (CV death, MI, stroke, or TIMI major bleeding): HR” value [3] was 1.00, the “Net clinical benefit (CV death, MI, stroke, or TIMI major bleeding): RRR (%)” value [3] was 0% and the “ischemic events prevented if 10,000 patients were started on treatment versus placebo” value (90 mg bid, intention-to-treat data) was 40.
